The source of these data is PubChem BioAssay (NCI).

Among the test systems are 786-0 renal; DU-145 prostate; HT29 colon; IGROV1 ovarian; MDA-MB-231 breast; NCI-H522 lung; SK-MEL-2 melanoma; SR leukemia; U251 CNS; HOP-92 NSCLC.
Holding throughout (experiment): DTP human tumour cell line panel, 48 h

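Exposure lasted 48 hours, with cells grown in 96-well plates and compounds tested at five concentrations. Abbreviation: GI50, concentration required for 50% inhibition of growth. TGI is the concentration that stops growth completely.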 A value given as a limit tells only on which side of the number the result lay.

Turning to `COc1ccc(Nc2nc3cc(N)cc(N)c3nc2-c2ccccc2)cc1OC`, the GI50 in the assay on 786-0 renal was 23.8 µM; in the assay with DU-145 prostate it was 45 µM; in the assay with HT29 colon, 25.2 µM; in the assay with IGROV1 ovarian, 24.8 µM; in the assay on MDA-MB-231 breast, 4.92 µM; in the assay with NCI-H522 lung, 28.9 µM. The GI50 was 27.2 µM in the assay on SK-MEL-2 melanoma, 2.67 µM with SR leukemia and 26 µM in the assay on U251 CNS. The concentration for total growth inhibition (TGI) was 90.3 µM in the assay on 786-0 renal; over 100 µM with DU-145 prostate; 52.7 µM in the assay with HT29 colon; over 100 µM with IGROV1 ovarian; 18.5 µM in the assay with MDA-MB-231 breast; over 100 µM in the assay with NCI-H522 lung. Also, the TGI in the assay on SK-MEL-2 melanoma was over 100 µM; in the assay with SR leukemia, 21.8 µM; with U251 CNS it was over 100 µM.
For the compound `O=C1c2ccccc2C(=O)c2c(NCC3CO3)ccc(NCC3CO3)c21` (stereo not given), the concentration for total growth inhibition (TGI) with 786-0 renal amounted to 5.57 µM; with DU-145 prostate, 30.2 µM; with HOP-92 NSCLC, 38 µM; in the assay with HT29 colon, 12.8 µM; in the assay on IGROV1 ovarian it was 15.9 µM; with MDA-MB-231 breast, 14.8 µM. The TGI was 20.1 µM in the assay with NCI-H522 lung, over 27.2 µM in the assay on SR leukemia and 8.38 µM with U251 CNS.
`COc1ccccc1NS(=O)(=O)c1ccc2oc(SC(C)C)nc2c1`: the GI50 in the assay with 786-0 renal is 26.6 µM; in the assay on DU-145 prostate, 31.8 µM; with HT29 colon, 22.2 µM; in the assay on MDA-MB-231 breast, 12.4 µM; in the assay on NCI-H522 lung, 10.2 µM; in the assay on SK-MEL-2 melanoma it was 15.6 µM. The GI50 in the assay with SR leukemia is 3.62 µM; in the assay on U251 CNS, 33.1 µM. Further, the TGI in the assay on 786-0 renal was over 100 µM; in the assay on DU-145 prostate, over 100 µM; in the assay on HOP-92 NSCLC, 13 µM; with HT29 colon, 64.1 µM; in the assay on MDA-MB-231 breast, 52 µM; in the assay with NCI-H522 lung, 75.7 µM. The TGI with SK-MEL-2 melanoma is 61.5 µM; with SR leukemia it was 24.4 µM; in the assay with U251 CNS, over 100 µM.
Take `CC1=C[C@H]2C[C@H](C)[C@H]3CC[C@H](C)[C@]4(C1)C(=O)C(O)=C(C)C(=O)[C@@]324`: the GI50 with 786-0 renal was 30.1 µM; in the assay with DU-145 prostate it was 43.3 µM; in the assay on HT29 colon it was 27.8 µM; in the assay with IGROV1 ovarian, 29.6 µM; in the assay with MDA-MB-231 breast, 20.8 µM; with NCI-H522 lung it was 19.8 µM. The figures for the GI50 with SK-MEL-2 melanoma, with SR leukemia and in the assay on U251 CNS were 32.3 µM, 27.4 µM and 32.1 µM, respectively. Moreover, the TGI with 786-0 renal is over 100 µM; in the assay on DU-145 prostate, over 100 µM; in the assay on HT29 colon, over 100 µM; in the assay with IGROV1 ovarian, over 100 µM; in the assay on MDA-MB-231 breast, 65.7 µM; with NCI-H522 lung, 83.4 µM. Further, the TGI is over 100 µM in the assay on SK-MEL-2 melanoma, 82.6 µM with SR leukemia and over 100 µM in the assay on U251 CNS.
As for `COc1cccc(C2C3=C(COC3=O)N(CCO)c3cc4c(cc32)OCO4)c1` (stereo not given), the GI50 with 786-0 renal was 0.37 µM; with DU-145 prostate, 0.388 µM; with HT29 colon it was 0.154 µM; with IGROV1 ovarian, 0.154 µM; with MDA-MB-231 breast, 1.28 µM; in the assay on NCI-H522 lung, 0.051 µM. Besides, the 50% growth inhibitory concentration (GI50) was 0.142 µM in the assay with SK-MEL-2 melanoma, 0.0795 µM with SR leukemia and 0.269 µM in the assay with U251 CNS. For the same compound, the total growth inhibition concentration (TGI) with 786-0 renal is over 50 µM; in the assay on HT29 colon, 1.58 µM; in the assay with IGROV1 ovarian, 1.64 µM; in the assay on MDA-MB-231 breast, 45.8 µM; in the assay with NCI-H522 lung it was 0.187 µM; in the assay with SK-MEL-2 melanoma, 0.43 µM. Further, the results for the TGI in the assay with SR leukemia and in the assay with U251 CNS were 0.227 µM and over 50 µM, respectively.
Turning to `COC1C2c3cc4c(cc3CC(C#N)(c3ccccc32)N1C(=O)c1ccccc1)OCO4` (stereo not given), the TGI with 786-0 renal, in the assay on HOP-92 NSCLC, in the assay with HT29 colon, in the assay on IGROV1 ovarian, in the assay on NCI-H522 lung and in the assay with SK-MEL-2 melanoma was over 100 µM each time. Besides, the TGI in the assay with SR leukemia and in the assay on U251 CNS was over 100 µM each time.
With `C/C=C/COC(=O)CO[N+](=O)[O-]`, the TGI in the assay on 786-0 renal, in the assay on HOP-92 NSCLC, with HT29 colon, in the assay with IGROV1 ovarian, in the assay on NCI-H522 lung and in the assay on SK-MEL-2 melanoma was over 100 µM in each case. The TGI in the assay with SR leukemia and in the assay on U251 CNS was over 100 µM in each case.
Turning to `O=c1[nH]c(=O)n(C2OC(CO)C(O)C2O)cc1OCC(F)(F)F` (stereo not given), the TGI in the assay on 786-0 renal, with HOP-92 NSCLC, in the assay with HT29 colon, with IGROV1 ovarian, in the assay on NCI-H522 lung and in the assay with SK-MEL-2 melanoma was over 100 µM throughout. For the same compound, the TGI in the assay on SR leukemia and with U251 CNS was over 100 µM in each case.
Take `CCOC(=O)C(CNc1ccc(O)cc1)NC(=O)c1ccccc1` (stereo not given): the total growth inhibition concentration (TGI) in the assay with 786-0 renal, with HOP-92 NSCLC, in the assay with HT29 colon, with IGROV1 ovarian, in the assay on NCI-H522 lung and with SK-MEL-2 melanoma was over 100 µM in each case. Besides, the TGI in the assay with SR leukemia and in the assay on U251 CNS was over 100 µM each time.
For `CCOC(=O)C1([Se]c2ccccc2)CCCC1=O` (stereo not given), the TGI in the assay on 786-0 renal was 28.4 µM; with HOP-92 NSCLC, 54.5 µM; in the assay on HT29 colon it was over 100 µM; in the assay with IGROV1 ovarian, 78.4 µM; in the assay with NCI-H522 lung it was 15.5 µM; in the assay on SK-MEL-2 melanoma, over 100 µM. The concentration for total growth inhibition (TGI) in the assay on SR leukemia amounted to 47.5 µM; in the assay on U251 CNS, 23.3 µM.
Consider `O=C(/C=C/C12c3ccccc3C(c3ccccc31)C1C(=O)NC(=O)C12)c1ccc(Cl)cc1` (stereo not given), for which the GI50 is 1.73 µM in the assay with 786-0 renal; 1.67 µM in the assay on DU-145 prostate; 1.32 µM in the assay on HOP-92 NSCLC; 1.67 µM in the assay with IGROV1 ovarian; 1.88 µM with MDA-MB-231 breast; 1.46 µM in the assay on NCI-H522 lung. Besides, the GI50 with SK-MEL-2 melanoma is 1.81 µM; with SR leukemia, 2.15 µM; in the assay with U251 CNS, 1.52 µM. The TGI in the assay with 786-0 renal came to 3.16 µM; in the assay on DU-145 prostate, 3.26 µM; with HOP-92 NSCLC it was 2.86 µM; with IGROV1 ovarian, 3.4 µM; in the assay with MDA-MB-231 breast, 4.3 µM; with NCI-H522 lung, 3.3 µM. In addition, the TGI with SK-MEL-2 melanoma is 3.71 µM; in the assay on SR leukemia, over 100 µM; in the assay with U251 CNS, 2.99 µM.
As for `COc1cc2c(cc1C1=NC(C)(C)CO1)OCO2`, the concentration for total growth inhibition (TGI) in the assay with 786-0 renal, with HOP-92 NSCLC, in the assay with HT29 colon, with IGROV1 ovarian, in the assay on NCI-H522 lung and in the assay with SK-MEL-2 melanoma was over 100 µM throughout. Moreover, the TGI in the assay with SR leukemia and with U251 CNS was over 100 µM throughout.
